# Measured values taken from patent publication US8735398B2 (Bristol-Myers Squibb Company, priority 2009, dated 2014).
# pEC50: −log10 of the molar value.
# System: HCV 1b genotype
# Test: HCV replicon assay (HCV-neo replicon cells, wild-type)
# Assay type: cell-based, Hepatitis C virus
# Conditions: HCV 1b genotype replicon; class symbol; read-out: EC50 Range against HCV 1b
# How it was run: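 HCV-neo replicon cells (wild-type) and replicon cells carrying NS5A resistance substitutions were treated with compounds; assay per O'Boyle et al. 2005, with luciferase-reporter read-out variants also used.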
row,Compound,pEC50
1,"O=C(Nc1ccc(-c2cnc(-c3ccc(NC(=O)[C@@H]4CCCN4C(=O)C(O)c4c[nH]c5ncccc45)cc3)o2)cc1)[C@@H]1CCCN1C(=O)C(O)c1c[nH]c2ncccc12 (stereo partly drawn) [Example D-15, (2S,2′S)-N,N′-(4,4′-(oxazole-2,5-diyl)bis(4,1-phenylene))bis(1-(2-hydroxy-2-(1H-pyrrolo[2,3-b]pyridin-3-yl)acetyl)pyrrolidine-2-carboxamide)]",5.00 to 6.00
2,"CC(C)(C)OC(=O)N1CCCC1(C)C(=O)N1CCC[C@H]1C(=O)Nc1ccc(-c2cnc(-c3ccc(NC(=O)[C@@H]4CCCN4C(=O)C4(C)CCCN4C(=O)OC(C)(C)C)cc3)o2)cc1 (stereo partly drawn) [Example D-29, di-tert-butyl 2,2′-(1,3-oxazole-2,5-diylbis(4,1-phenylenecarbamoyl(2S)-2,1-pyrrolidinediylcarbonyl))bis(2-methyl-1-pyrrolidinecarboxylate)]",5.00 to 6.00
3,"CC(C)(C)OC(=O)N1CCCC1C(=O)N1CCCC1C(=O)Nc1ccc(-c2cnc(-c3ccc(NC(=O)C4CCCN4C(=O)C4CCCN4C(=O)OC(C)(C)C)cc3)o2)cc1 [Example D-27, di-tert-butyl (2S,2′S)-2,2′-(1,3-oxazole-2,5-diylbis(4,1-phenylenecarbamoyl(2S)-2,1-pyrrolidinediylcarbonyl))di(1-pyrrolidinecarboxylate)]",5.00 to 6.00
4,"O=C(Nc1ccc(-c2cnc(-c3ccc(NC(=O)[C@@H]4CCCN4C(=O)[C@@H]4C[C@@H]5C[C@@H]5N4C(=O)c4ccc(Cl)cc4Cl)cc3)o2)cc1)[C@@H]1CCCN1C(=O)[C@@H]1C[C@@H]2C[C@@H]2N1C(=O)c1ccc(Cl)cc1Cl [Example D-26, (S,S,S,2S,2′S)-N,N′-(4,4′-(oxazole-2,5-diyl)bis(4,1-phenylene))bis(1-((1S,3S,5S)-2-(2,4-dichlorobenzoyl)-2-azabicyclo[3.1.0]hexane-3-carbonyl)pyrrolidine-2-carboxamide)]",5.00 to 6.00

# Same assay, conditions: HCV 1b genotype replicon; read-out: EC50 1b
row,Compound,pEC50
1,"O=C(Nc1ccc(-c2cnc(-c3ccc(NC(=O)[C@@H]4CCCN4C(=O)C(O)c4c[nH]c5ncccc45)cc3)o2)cc1)[C@@H]1CCCN1C(=O)C(O)c1c[nH]c2ncccc12 (stereo partly drawn) [Example D-15, (2S,2′S)-N,N′-(4,4′-(oxazole-2,5-diyl)bis(4,1-phenylene))bis(1-(2-hydroxy-2-(1H-pyrrolo[2,3-b]pyridin-3-yl)acetyl)pyrrolidine-2-carboxamide)]",5.17
2,"O=C(Nc1ccc(-c2cnc(-c3ccc(NC(=O)[C@@H]4CCCN4C(=O)[C@@H]4C[C@@H]5C[C@@H]5N4C(=O)c4ccc(Cl)cc4Cl)cc3)o2)cc1)[C@@H]1CCCN1C(=O)[C@@H]1C[C@@H]2C[C@@H]2N1C(=O)c1ccc(Cl)cc1Cl [Example D-26, (S,S,S,2S,2′S)-N,N′-(4,4′-(oxazole-2,5-diyl)bis(4,1-phenylene))bis(1-((1S,3S,5S)-2-(2,4-dichlorobenzoyl)-2-azabicyclo[3.1.0]hexane-3-carbonyl)pyrrolidine-2-carboxamide)]",5.48

# Same assay, conditions: Hepatitis C virus, HCV 1b genotype replicon; class symbol; read-out: EC50 Range against HCV 1b
row,Compound,pEC50
1,"CC(=O)N1CCC[C@H]1C(=O)Nc1ccc(-c2ccc(-c3ccc(NC(=O)[C@@H]4CCCN4C(C)=O)cc3)o2)cc1 [JG-55, (2S,2′S)-N,N′-(2,5-furandiyldi-4,1-phenylene)bis(1-acetyl-2-pyrrolidinecarboxamide)]",6.00 to 7.00
2,"Cc1nc(-c2ccc(NC(=O)[C@@H]3CCCN3C(=O)OCc3ccccc3)cc2)c(-c2ccc(NC(=O)[C@@H]3CCCN3C(=O)OCc3ccccc3)cc2)o1 [OL-5, (2S,2′S)-2,2′-[(2-methyl-4,5-oxazolediyl)bis(4,1-phenyleneiminocarbonyl)]bis-1-pyrrolidinecarboxylic acid, bis(phenylmethyl) ester]",6.00 to 7.00
3,"Cc1nc(-c2ccc(NC(=O)[C@@H]3CCCN3C(=O)Cc3ccccc3)cc2)c(-c2ccc(NC(=O)[C@@H]3CCCN3C(=O)Cc3ccccc3)cc2)s1 [Example D-44, (2S,2′S)-N,N′-((2-methyl-1,3-thiazole-4,5-diyl)di-4,1-phenylene)bis(1-(phenylacetyl)-2-pyrrolidinecarboxamide)]",7.00 to 8.34
4,"CC(=O)N1CCC[C@H]1C(=O)Nc1ccc(-c2sc(C)nc2-c2ccc(NC(=O)[C@@H]3CCCN3C(=O)Cc3ccccc3)cc2)cc1 [Example D-42, (2S)-1-acetyl-N-(4-(2-methyl-4-(4-((((2S)-1-(phenylacetyl)-2-pyrrolidinyl)carbonyl)amino)phenyl)-1,3-thiazol-5-yl)phenyl)-2-pyrrolidinecarboxamide]",5.00 to 6.00
5,"O=C(Nc1ccc(-c2cnc(-c3ccc(NC(=O)[C@@H]4CCCN4C(=O)c4cccc(F)n4)cc3)o2)cc1)[C@@H]1CCCN1C(=O)c1cccc(F)n1 [OL-50, (2S,2′S)-N,N′-(1,3-oxazole-2,5-diyldi-4,1-phenylene)bis(1-((6-fluoro-2-pyridinyl)carbonyl)-2-pyrrolidinecarboxamide)]",6.00 to 7.00
6,"COC(C(=O)N1CCC[C@H]1C(=O)Nc1ccc(-c2nnc(-c3ccc(NC(=O)[C@@H]4CCCN4C(=O)C(OC)c4ccccc4)cc3)o2)cc1)c1ccccc1 (stereo partly drawn) [RK-11, (2S,2′S)-N,N′-(1,3,4-oxadiazole-2,5-diyldi-4,1-phenylene)bis(1-(methoxy(phenyl)acetyl)-2-pyrrolidinecarboxamide)]",6.00 to 7.00
7,"O=C(Nc1ccc(-c2cnc(-c3ccc(NC(=O)[C@@H]4CCCN4C(=O)c4cc5ccccc5o4)cc3)o2)cc1)[C@@H]1CCCN1C(=O)c1cc2ccccc2o1 [JG-28, (2S,2′S)-N,N′-(1,3-oxazole-2,5-diyldi-4,1-phenylene)bis(1-(1-benzofuran-2-ylcarbonyl)-2-pyrrolidinecarboxamide)]",6.00 to 7.00
8,"C[C@H](NC(=O)[C@H](O)c1ccccc1)C(=O)Nc1ccc(-c2cnc(-c3ccc(NC(=O)[C@H](C)NC(=O)[C@H](O)c4ccccc4)cc3)o2)cc1 [OL-55, (2S,2′S)-N,N′-(1,3-oxazole-2,5-diyldi-4,1-phenylene)bis(2-(((2R)-2-hydroxy-2-phenylacetyl)amino)propanamide)]",> 8.34
9,"CCC(=O)N1CCC[C@H]1C(=O)Nc1ccc(-c2cnc(-c3ccc(NC(=O)[C@@H]4CCCN4C(=O)CC)cc3)o2)cc1 [JG-8, (2S,2′S)-N,N′-(1,3-oxazole-2,5-diyldi-4,1-phenylene)bis(1-propionyl-2-pyrrolidinecarboxamide)]",6.00 to 7.00
10,"CC(=O)N1CCC[C@H]1C(=O)Nc1ccc(-c2cnc(-c3ccc(NC(=O)[C@@H]4C=CCN4C(=O)Cc4cccs4)cc3)o2)cc1 [Example D-1, (2S)-N-[4-[5-[4-[[[(2S)-1-acetyl-2-pyrrolidinyl]carbonyl]amino]phenyl]-2-oxazolyl]phenyl]-2,5-dihydro-1-(2-thienylacetyl)-1H-pyrrole-2-carboxamide]",5.00 to 6.00
11,"C[C@H](NC(=O)[C@@](C)(O)c1ccccc1)C(=O)Nc1ccc(-c2nnc(-c3ccc(NC(=O)[C@H](C)NC(=O)[C@@](C)(O)c4ccccc4)cc3)o2)cc1 [RK-30, (2S,2′S)-N,N′-(1,3,4-oxadiazole-2,5-diylbis(4,1-phenyleneimino((2S)-1-oxo-1,2-propanediyl)))bis(2-hydroxy-2-phenylpropanamide)]",6.00 to 7.00
12,"O=C(Nc1ccc(-c2nc[nH]c2-c2ccc(NC(=O)[C@@H]3CCCN3C(=O)OCc3ccccc3)cc2)cc1)[C@@H]1CCCN1C(=O)OCc1ccccc1 [OL-7, (2S,2′S)-2,2′-[1H-imidazole-4,5-diylbis(4,1-phenyleneiminocarbonyl)]bis-1-pyrrolidinecarboxylic acid, bis(phenylmethyl) ester]",7.00 to 8.34
13,"O=C(C(=O)N1CCC[C@H]1C(=O)Nc1ccc(-c2cnc(-c3ccc(NC(=O)[C@@H]4CCCN4C(=O)C(=O)c4ccccc4)cc3)o2)cc1)c1ccccc1 [JG-27, (2S,2′S)-N,N′-(1,3-oxazole-2,5-diyldi-4,1-phenylene)bis(1-(oxo(phenyl)acetyl)-2-pyrrolidinecarboxamide)]",7.00 to 8.34
14,"CC(=O)N1CCC[C@H]1C(=O)Nc1ccc(-c2nc(-c3ccc(NC(=O)[C@@H]4C=CCN4C(=O)c4cccs4)cc3)cs2)cc1 [Example D-47, (2S)-N-[4-[2-[4-[[[(2S)-1-acetyl-2-pyrrolidinyl]carbonyl]amino]phenyl]-4-thiazolyl]phenyl]-2,5-dihydro-1-(2-thienylcarbonyl)-1H-pyrrole-2-carboxamide]",5.00 to 6.00

# Same assay, conditions: Hepatitis C virus, HCV 1b genotype replicon; class symbols; read-out: EC50 Range against HCV 1b
row,Compound,pEC50
1,"O=C(Nc1ccc(-c2cnc(-c3ccc(NC(=O)[C@@H]4CCCN4C(=O)Cn4c(=O)[nH]c5ccccc54)cc3)o2)cc1)[C@@H]1CCCN1C(=O)Cn1c(=O)[nH]c2ccccc21 [JR-9, (2S,2′S)-N,N′-(2,5-oxazolediyldi-4,1-phenylene)bis[1-[(2,3-dihydro-2-oxo-1H-benzimidazol-1-yl)acetyl]-2-pyrrolidinecarboxamide]]",6.00 to 7.00
2,"Cc1noc(C)c1C(=O)N1C[C@H](O)C[C@H]1C(=O)Nc1ccc(-c2cnc(-c3ccc(NC(=O)[C@@H]4C[C@@H](O)CN4C(=O)c4c(C)noc4C)cc3)o2)cc1 [XY-53, (2S,4R,2′S,4′R)-N,N′-(1,3-oxazole-2,5-diyldi-4,1-phenylene)bis(1-((3,5-dimethyl-4-isoxazolyl)carbonyl)-4-hydroxy-2-pyrrolidinecarboxamide)]",5.00 to 6.00
3,"CC(C)(C)O[C@@H]1C[C@@H](C(=O)Nc2ccc(-c3cnc(-c4ccc(NC(=O)[C@@H]5C[C@@H](OC(C)(C)C)CN5C(=O)OCc5ccccc5)cc4)o3)cc2)N(C(=O)OCc2ccccc2)C1 [XY-59, dibenzyl (2S,4R,2′S,4′R)-2,2′-(1,3-oxazole-2,5-diylbis(4,1-phenylenecarbamoyl))bis(4-tert-butoxy-1-pyrrolidinecarboxylate)]",5.00 to 6.00
4,"CO[C@@H](C(=O)N1CCC[C@H]1C(=O)Nc1ccc(-c2cnc(-c3ccc(NC(=O)[C@@H]4CCCN4C(=O)[C@H](OC)c4ccccc4)cc3)o2)cc1)c1ccccc1 [XY-26, (2S,2′S)-N,N′-(1,3-oxazole-2,5-diyldi-4,1-phenylene)bis(1-((2R)-2-methoxy-2-phenylacetyl)-2-pyrrolidinecarboxamide)]",5.00 to 6.00
5,"O=C(Nc1ccc(-c2cnc(-c3ccc(NC(=O)[C@@H]4CCCN4C(=O)C(O)Cc4cccnc4)cc3)o2)cc1)[C@@H]1CCCN1C(=O)C(O)Cc1cccnc1 (stereo partly drawn) [JR-4, (2S,2′S)-N,N′-(2,5-oxazolediyldi-4,1-phenylene)bis[1-[2-hydroxy-1-oxo-3-(3-pyridinyl)propyl]-2-pyrrolidinecarboxamide]]",5.00 to 6.00
6,"CC(C)(C)O[C@@H]1C[C@@H](C(=O)Nc2ccc(-c3cnc(-c4ccc(NC(=O)[C@@H]5C[C@@H](OC(C)(C)C)CN5C(=O)C(C)(C)C)cc4)o3)cc2)N(C(=O)C(C)(C)C)C1 [XY-63, (2S,4R,2′S,4′R)-N,N′-(1,3-oxazole-2,5-diyldi-4,1-phenylene)bis(4-tert-butoxy-1-(2,2-dimethylpropanoyl)-2-pyrrolidinecarboxamide)]",6.00 to 7.00
7,"O=C(Nc1ccc(-c2cnc(-c3ccc(NC(=O)[C@@H]4CCCN4C(=O)c4ccc5c(c4)OCO5)cc3)o2)cc1)[C@@H]1CCCN1C(=O)c1ccc2c(c1)OCO2 [XY-36, (2S,2′S)-N,N′-(1,3-oxazole-2,5-diyldi-4,1-phenylene)bis(1-(1,3-benzodioxol-5-ylcarbonyl)-2-pyrrolidinecarboxamide)]",6.00 to 7.00

# Same assay, conditions: Hepatitis C virus, HCV 1b genotype replicon; read-out: EC50 1b
row,Compound,pEC50
1,"Cc1noc(C)c1C(=O)N1C[C@H](O)C[C@H]1C(=O)Nc1ccc(-c2cnc(-c3ccc(NC(=O)[C@@H]4C[C@@H](O)CN4C(=O)c4c(C)noc4C)cc3)o2)cc1 [XY-53, (2S,4R,2′S,4′R)-N,N′-(1,3-oxazole-2,5-diyldi-4,1-phenylene)bis(1-((3,5-dimethyl-4-isoxazolyl)carbonyl)-4-hydroxy-2-pyrrolidinecarboxamide)]",5.09
